Experimental data as given in patent US10654834B2 (Venenum Biodesign, LLC, priority 2016, dated 2020).
Structures can show the parent of a compound that is named as a salt.

Legend:
[1] = biological target: T1, human TGR5 receptor (Homo sapiens, UniProt Q8TDU6); assay: Human TGR5 cAMP production assay (hTGR5-CHO cells, DiscoveRx cAMP XS+ kit); format: cell-based; conditions: luminescent cAMP assay, read-out: Human TGR5 Lum. cAMP Activity (EC50)
T1 construct: host or cells: CHO-K1 (hTGR5-CHO)
T1 sequence (Q8TDU6 1-330): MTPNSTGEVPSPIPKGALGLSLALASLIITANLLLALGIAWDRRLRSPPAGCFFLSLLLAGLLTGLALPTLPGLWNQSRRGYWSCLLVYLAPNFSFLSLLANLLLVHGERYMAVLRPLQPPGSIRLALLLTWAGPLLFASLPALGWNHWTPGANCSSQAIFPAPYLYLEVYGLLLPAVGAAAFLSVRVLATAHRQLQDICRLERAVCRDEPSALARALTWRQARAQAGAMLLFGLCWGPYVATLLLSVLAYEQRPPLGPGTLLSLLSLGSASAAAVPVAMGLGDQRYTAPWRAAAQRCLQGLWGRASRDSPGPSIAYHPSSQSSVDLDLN
Summary of the method: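 CHO-K1 cells stably expressing hTGR5, in PBS with IBMX and cAMP antibody, treated with half-log compound dilutions for 1 h at room temperature. cAMP measured by enzyme-fragment complementation luminescence after overnight detection; EC50 values reported.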

[2] = biological target: T2, mouse TGR5 receptor (Mus musculus, UniProt Q80SS6); assay: Mouse TGR5 luminescent cAMP production assay (HEK293-EBNA cells, DiscoveRx cAMP XS+ kit); format: cell-based; conditions: HEK293-EBNA cells overexpressing mouse TGR5, luminescent cAMP assay; read-out: Mouse TGR5 Lum. cAMP Activity (EC50)
T2 construct: host or cells: HEK293-EBNA (293 c18, ATCC CRL10852)
T2 sequence (Q80SS6 1-329): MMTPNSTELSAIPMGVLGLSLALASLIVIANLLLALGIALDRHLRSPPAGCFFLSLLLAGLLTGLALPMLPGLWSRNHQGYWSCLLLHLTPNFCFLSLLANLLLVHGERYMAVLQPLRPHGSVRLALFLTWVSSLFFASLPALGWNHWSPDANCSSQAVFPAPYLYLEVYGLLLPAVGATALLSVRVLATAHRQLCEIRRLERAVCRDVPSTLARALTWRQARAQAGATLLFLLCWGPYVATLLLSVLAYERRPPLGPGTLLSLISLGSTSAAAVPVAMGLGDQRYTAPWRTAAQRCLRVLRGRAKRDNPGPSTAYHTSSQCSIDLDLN
Summary of the method: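 HEK293-EBNA cells stably expressing mouse TGR5, resuspended in serum-free DMEM with 500 μM IBMX, were premixed 20 min with cAMP antibody, then exposed to half-log compound dilutions for 1 h at room temperature. cAMP was read by luminescent enzyme-fragment complementation (cAMP XS+) after overnight incubation; EC50 derived.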

Compound `Cn1ccc2cc(-c3cc(N4CCC[C@H]4C(=O)NCCc4ccc(C#N)cc4)nc(C(F)(F)F)n3)ccc21` [Compound 169, (S)-N-(4-cyanophenethyl)-1-(6-(1-methyl-1H-indol-5-yl)-2-(trifluoromethyl)pyrimidin-4-yl)pyrrolidine-2-carboxamide] has an EC50 [1] of 1000 to 30000 nM and an EC50 [2] of 100 to 999 nM.

For `N#Cc1ccc(CCNC(=O)[C@@H]2CCCN2c2cc(-c3csc(C(=O)O)c3)nc(C(F)(F)F)n2)cc1` [Compound 178, (S)-4-(6-(2-((4-cyanophenethyl)carbamoyl)pyrrolidin-1-yl)-2-(trifluoromethyl)pyrimidin-4-yl)thiophene-2-carboxylic acid], the EC50 [1] was 1000 to 30000 nM and the EC50 [2] was less than 100 nM.

Work on `CNC(=O)c1cc(-c2cc(N3CCC[C@H]3C(=O)NCCc3ccc(C#N)cc3)nc(C(F)(F)F)n2)cs1` [Compound 179, (S)—N-(4-cyanophenethyl)-1-(6-(5-(methylcarbamoyl)thiophen-3-yl)-2-(trifluoromethyl)pyrimidin-4-yl)pyrrolidine-2-carboxamide] yielded an EC50 [1] of 1000 to 30000 nM and an EC50 [2] of 1000 to 30000 nM.

`N#Cc1ccc(CCNC(=O)[C@@H]2CCCN2c2cc(-c3ccc(CN)cc3)nc(C(F)(F)F)n2)cc1` [Compound 185, (S)-1-(6-(4-(aminomethyl)phenyl)-2-(trifluoromethyl)pyrimidin-4-yl)-N-(4-cyanophenethyl)pyrrolidine-2-carboxamide] was tested, and the EC50 [1] was 100 to 999 nM and the EC50 [2] was 100 to 999 nM.

Work on `N#Cc1ccc(CCNC(=O)[C@@H]2C[C@@H](O)CN2c2cc(N3CCC(CO)CC3)nc(C(F)(F)F)n2)cc1` [Compound 211, (2S,4R)-N-(4-cyanophenethyl)-4-hydroxy-1-(6-(4-(hydroxymethyl)piperidin-1-yl)-2-(trifluoromethyl)pyrimidin-4-yl)pyrrolidine-2-carboxamide] yielded an EC50 [1] of 100 to 999 nM and an EC50 [2] of 100 to 999 nM.

`N[C@@H]1CC(C(=O)NCCc2ccc(C(F)(F)F)cc2)N(c2cc(N3CCC(CO)CC3)nc(C(F)(F)F)n2)C1` (stereo partly drawn) [Compound 218, (4R)-4-amino-1-(6-(4-(hydroxymethyl)piperidin-1-yl)-2-(trifluoromethyl)pyrimidin-4-yl)-N-(4-(trifluoromethyl)phenethyl)pyrrolidine-2-carboxamide] gave an EC50 [1] of 1000 to 30000 nM and an EC50 [2] of 100 to 999 nM.

`CN(C)CC1CCN(c2cc(N3CC[C@H]3C(=O)NCCc3ccc(C#N)cc3)nc(C(F)(F)F)n2)CC1` [Compound 221, (S)-N-(4-cyanophenethyl)-1-(6-(4-((dimethylamino)methyl)piperidin-1-yl)-2-(trifluoromethyl)pyrimidin-4-yl)azetidine-2-carboxamide] showed an EC50 [1] of 100 to 999 nM and an EC50 [2] of less than 100 nM.

`COCC1CCN(c2cc(N3CC[C@H]3C(=O)NCCc3ccc(C#N)cc3)nc(C(F)(F)F)n2)CC1` [Compound 222, (S)-N-(4-cyanophenethyl)-1-(6-(4-(methoxymethyl)piperidin-1-yl)-2-(trifluoromethyl)pyrimidin-4-yl)azetidine-2-carboxamide] was tested, and the EC50 [1] was less than 100 nM and the EC50 [2] was 100 to 999 nM.

With `N#Cc1ccc(CCNC(=O)C2CCN2c2cc(N3CCC(CO)CC3)nc(C(F)(F)F)n2)cc1` (stereo not drawn) [Compound 241, N-(4-cyanophenethyl)-1-(6-(4-(hydroxymethyl)piperidin-1-yl)-2-(trifluoromethyl)pyrimidin-4-yl)azetidine-2-carboxamide] the EC50 [1] was less than 100 nM and the EC50 [2] was less than 100 nM.

`N#Cc1ccc(CCNC(=O)[C@@H]2CCN2c2cc(OC3CCOCC3)nc(C(F)(F)F)n2)cc1` [Compound 242, (S)—N-(4-cyanophenethyl)-1-(6-((tetrahydro-2H-pyran-4-yl)oxy)-2-(trifluoromethyl)pyrimidin-4-yl)azetidine-2-carboxamide] showed an EC50 [1] of 100 to 999 nM and an EC50 [2] of less than 100 nM.

`CC(C)(C)OC(=O)N1CCC(Oc2cc(N3CC[C@H]3C(=O)NCCc3ccc(C#N)cc3)nc(C(F)(F)F)n2)CC1` [Compound 243, (S)-tert-butyl 4-((6-(2-((4-cyanophenethyl)carbamoyl)azetidin-1-yl)-2-(trifluoromethyl)pyrimidin-4-yl)oxy)piperidine-1-carboxylate] showed an EC50 [1] of 100 to 999 nM and an EC50 [2] of 100 to 999 nM.

`N#Cc1ccc(CCNC(=O)C2CCN2c2cc(OC3CCOCC3)nc(C(F)(F)F)n2)cc1` (stereo not drawn) [Compound 244, N-(4-cyanophenethyl)-1-(6-((tetra-hydro-2H-pyran-4-yl)oxy)-2-(trifluoromethyl)pyrimidin-4-yl)azetidine-2-carboxamide] gave an EC50 [1] of 100 to 999 nM and an EC50 [2] of less than 100 nM.

In the case of `N#Cc1ccc(CCNC(=O)[C@@H]2CCN2c2cc(N3CCC(CN)CC3)nc(C(F)(F)F)n2)cc1` [Compound 245, (S)-(1-(6-(4-aminomethylpiperidin-1-yl)-2-(trifluoromethyl)pyrimidin-4-yl)-N-(4-cyanophenethyl)azetidine-2-carboxamide hydrochloride], the EC50 [1] is reported as 100 to 999 nM and the EC50 [2] is reported as 100 to 999 nM.

With `N#Cc1ccc(CCNC(=O)[C@@H]2CCN2c2cc(-c3ccncc3)nc(C(F)(F)F)n2)cc1` [Compound 303] the EC50 [1] was 100 to 999 nM and the EC50 [2] was 100 to 999 nM.

In the case of `N#Cc1ccc(CCNC(=O)[C@@H]2CCN2c2cc(-c3ccc(CO)cc3)nc(C(F)(F)F)n2)cc1` [Compound 304, (S)-N-(4-cyanophenethyl)-1-(6-(4-(hydroxymethyl)phenyl)-2-(trifluoromethyl)pyrimidin-4-yl)azetidine-2-carboxamide], the EC50 [1] is reported as 100 to 999 nM and the EC50 [2] is reported as 100 to 999 nM.

`N#Cc1ccc(CCNC(=O)[C@@H]2CCN2c2cc(-c3cccnc3)nc(C(F)(F)F)n2)cc1` [Compound 305, (S)-N-(4-cyanophenethyl)-1-(6-(pyridin-3-yl)-2-(trifluoromethyl)pyrimidin-4-yl)azetidine-2-carboxamide] gave an EC50 [1] of 1000 to 30000 nM and an EC50 [2] of 100 to 999 nM.

`N#Cc1ccc(CCNC(=O)[C@@H]2CCN2c2cc(-c3ccccn3)nc(C(F)(F)F)n2)cc1` [Compound 306, (S)-N-(4-cyanophenethyl)-1-(6-(pyridin-2-yl)-2-(trifluoromethyl)pyrimidin-4-yl)azetidine-2-carboxamide] gave an EC50 [1] of 100 to 999 nM and an EC50 [2] of 100 to 999 nM.

In the case of `N#Cc1ccc(CCNC(=O)C2CCN2c2cc(-c3ccncc3)nc(C(F)(F)F)n2)cc1` (stereo not drawn) [Compound 307, N-(4-cyanophenethyl)-1-(6-(pyridin-4-yl)-2-(trifluoromethyl)pyrimidin-4-yl)azetidine-2-carboxamide], the EC50 [1] is reported as 100 to 999 nM and the EC50 [2] is reported as less than 100 nM.

Work on `COCC1CCN(c2cc(N3CCC[C@@H](C(=O)NCCc4ccc(C#N)cc4)C3)nc(C(F)(F)F)n2)CC1` [Compound 310, (R)-N-(4-cyanophenethyl)-1-(6-(4-(methoxymethyl)piperidin-1-y1)-2-(trifluoromethyl)pyrimidin-4-yl)piperidine-3-carboxamide] yielded an EC50 [1] of less than 100 nM and an EC50 [2] of 100 to 999 nM.

`N#Cc1ccc(CCNC(=O)[C@@H]2CCCN(c3cc(N4CCN(CCO)CC4)nc(C(F)(F)F)n3)C2)cc1` [Compound 313, (R)-N-(4-cyanophenethyl)-1-(6-(4-(2-hydroxyethyl)piperazin-1-yl)-2-(trifluoromethyl)pyrimidin-4-yl)piperidine-3-carboxamide] gave an EC50 [1] of 100 to 999 nM and an EC50 [2] of 100 to 999 nM.

In the case of `CN(C)CCN1CCN(c2cc(N3CCC[C@@H](C(=O)NCCc4ccc(C#N)cc4)C3)nc(C(F)(F)F)n2)CC1` [Compound 317, (R)-N-(4-cyanophenethyl)-1-(6-(4-(2-(dimethylamino)ethyl)piperazin-1-yl)-2-(trifluoromethyl)pyrimidin-4-yl)piperidine-3-carboxamide], the EC50 [1] is reported as 100 to 999 nM and the EC50 [2] is reported as 100 to 999 nM.

`N#Cc1ccc(CCNC(=O)[C@@H]2CCCN(c3cc(N4CCN(Cc5cccc6c5OCO6)CC4)nc(C(F)(F)F)n3)C2)cc1` [Compound 319, (R)-1-(6-(4-(benzo[d][1,3]dioxol-4-ylmethyl)piperazin-1-yl)-2-(trifluoromethyl)pyrimidin-4-yl)-N-(4-cyanophenethyl)piperidine-3-carboxamide] gave an EC50 [1] of 100 to 999 nM and an EC50 [2] of 100 to 999 nM.

With `Nc1cc(N2CCC[C@@H](C(=O)NCCc3ccc(C(F)(F)F)cc3)C2)nc(C(F)(F)F)n1` [Compound 320, (R)-1-(6-amino-2-(trifluoromethyl)pyrimidin-4-yl)-N-(4-(trifluoromethyl)phenethyl)piperidine-3-carboxamide] the EC50 [1] was 100 to 999 nM and the EC50 [2] was 100 to 999 nM.

`CNc1cc(N2CCC[C@@H](C(=O)NCCc3ccc(C(F)(F)F)cc3)C2)nc(C(F)(F)F)n1` [Compound 321, (R)-1-(6-(methylamino)-2-(trifluoromethyl)pyrimidin-4-yl)-N-(4-(trifluoromethyl)phenethyl)piperidine-3-carboxamide] showed an EC50 [1] of 100 to 999 nM and an EC50 [2] of 100 to 999 nM.
